Experimental data published in patent publication US20250333682A1, “DYNAMIC HYDROGEL AND PULMONARY FIBROSIS BIONIC CHIP” (Anivance AI Corporation, priority 2024, published 2025).

Tested on: HFL-1 cells
Assay: antifibrotic drug efficacy model on lung fibrosis bionic chip, immunofluorescence staining
Assay type: cell-based, human
Conditions: TGF-β-induced HFL-1 on dynamic hydrogel with laser dynamic response
Description: Using the dynamic hydrogel obtained from different crosslinking times as the cell culture substrate for fibrosis models (human fetal lung fibroblasts, HFL-1), the expression of α-SMA protein is used as an indicator of myofibroblast differentiation. After culturing the HFL-1 cells for one day, 10 ng/ml of TGF-β is added to stimulate the cells as a control group for α-SMA expression. After two days of culture, a laser device is used to irradiate the cells for 24 hours at frequencies of 0.2 Hz (On-1.5 s/Off-3.5 s) and 0.3 Hz ([…]), respectively. The cells are then fixed and stained for observation. In FIG. 11, “10 min” and “25 min” indicate the fluorescence images of the dynamic hydrogel 5 obtained by UV irradiation for 10 minutes and 25 minutes, respectively.
Furthermore, since ECM remodeling in lung fibrosis patients leads to tissue stiffness, and stiff substrates apply mechanical stress to cells, the activity of YAP occurs through nuclear translocation, with YAP cellular localization depending on mechanical stress. Therefore, HFL-1 cells are cultured in dynamic hydrogels of different hardness (simulating substrates of varying stiffness) and dynamic response environments with laser frequencies to evaluate the effects of substrate hardness and dynamic response on the localization of YAP in lung fibroblasts. […]

Question: Cc1ccc(=O)n(-c2ccccc2)c1 [pirfenidone] was tested. Which “expression of the fibrotic marker α-SMA” value (pirfenidone 5.3 mM, two days drug, FIG. 13(a)) did it give?
Answer: inhibited

Question: What about the “inhibiting the mechanical response marker YAP” value (pirfenidone, FIG. 13(b)) of the same compound?
Answer: less significant effect
